Tests used:
[1] = target: ARAF (Homo sapiens (Human), UniProt P10398); experiment: ARAF kinase activity assay (AlphaLISA p-MEK 1/2 detection); format: biochemical
Method: Compound preparation: solid samples of each substances in 1 dram vials were suspended in DMSO (Fisher Scientific) at a stock concentration of 20 mM. Stocks were kept at −20° C. and protected from light. If solubility of the compound at 20 mM appeared to be an issue, the initial concentration of the DMSO stock was changed to 10 mM or 5 mM.
In vitro enzymatic reactions were used for evaluating compounds intrinsic activity against BRAF, CRAF and ARAF. For BRAF and CRAF, 0.375 nM of purified GST-tagged kinases (cat #B4062-10 UG and cat #R1656-10 UG respectively from Millipore Sigma) were incubated with 75 nM of kinase-dead MEK1 substrate (cat #40075; BPS Bioscience) in the presence of 10 μM of Ultrapure ATP (cat #V9102; Promega; part V915A) with and without the test compound in a buffer containing 50 mM HEPES pH 7.5, 10 mM MgCl2, 1 mM EDTA, 0.01% Brij-35 and 2 mM DTT. Separate reactions were performed with the MEK1 substrate and ATP as a blank control. ARAF, kinase reactions were rigorously the same with the exception that kinase concentration was raised to 3.75 nM (cat #1768-0000-1; Reaction Biology).
For compound treatment, 5 μL/well of test substance solution are placed in a 384-well proxyplate (Perkin Elmer) and mixed with 2× concentrated kinase reactions. The dilution series is selected so that nine concentrations cover a range from 100 nM to 0.01 nM. […] The final concentration of DMSO in the assay is set at 0.05%.
ARAF kinase reactions were carried out for a total of 2 hours at 30° C. and then stopped by addition of EDTA at a final concentration of 40 mM. Reactions were then detected using the AlphaLISA® SureFire® Ultra™ p-MEK 1/2 (Ser218/222) (PerkinElmer) kit. Reactions were performed with 5 μL of kinase reaction according to the manufacturer's specifications in 384-well proxyplates (Perkin Elmer) followed by overnight incubation of the AlphaLISA® reactions at room temperature in a humidified chamber. After completion of the detection reactions, the signals were recorded on a Synergy Neo2 plate reader (Biotek) equipped with AlphaLISA® filters. The effect of each compound dilution on the pMEK signal generated by ARAF reactions was expressed in % inhibition and calculated as follows. An internal 100% inhibition control (average of luminescence in kinase reactions comprising kinase dead MEK1 substrate alone) was included in each plate to measure of pMEK background and was subtracted from each data point. The average of DMSO (vehicle) controls (set as 0% inhibition) was also established and used to calculate % inhibition: % inhibition=100*(1−((pMEK signalcompound)/(pMEK signalDMSO)))
IC50 values were obtained by plotting the kinase inhibition values and fitting the dose-activity curves using a log(agonist) versus response-variable slope (four parameters) function using either GraphPadPrism (V7.0) or Dotmatics Screening Ultra platform. Standards included in the ARAF kinase assay were Belvarafenib (MedChem Express cat #HY-109080; CAS #1446113-23-0), LXH254 (MedChem Express cat #HY-112089; CAS #1800398-38-2) and BGB283 (cat #HY-18957; CAS #1446090-79-4).

[2] = test system: pERK in IPC298 cells (NRAS-Q61L); experiment: Phospho-ERK inhibition (AlphaLISA), IPC298; format: cell-based, human; settings: for IPC298 pERK % Ymin: IPC298, value in parentheses
Method: All cancer cell lines (A375, A101D, A2058, RKO, HT29 SK-MEL 30, IPC298, HepG2, HCT-116, Lovo, SWV620, SW480, NCI-H358, NCI-H2122, Calu-6, NCIH2087, NCIH1755, NCIH1666 and Mewo) were obtained from ATCC and cultured in RPMI-1640 medium (Gibco) supplemented with 5% heat inactivated fetal bovine serum (FBS, Wisent) at 37° C. under 5% CO2. Cells were maintained in T175 flasks (Greiner). They were passaged by removing the culture medium, washing once in 10 mL of room temperature Phosphate Buffered Saline (PBS; Wisent) and incubating at 37° C. with 2 mL of 0.05% Trypsin (Thermo-Fisher). Trypsin was then inactivated by adding complete growth medium and the cells were then replated in a T175 culture dish at the appropriate dilution. All cell lines were routinely tested for mycoplasma contamination. Tissue type and mutational status of each cell line can be found in Table B.
AlphaLISA® SureFire® Ultra™ p-ERK 1/2 (Thr202/Tyr204) analysis was conducted on cells plated in 100 μL of complete RPMI-1640 growth medium in 96-well flat-bottomed transparent dishes (Costar) at a density indicated in Table C. Cells were maintained overnight at 37° C. under 5% CO2 before treatment with compounds' dilution series for one hour. The cell density in cells/cm^2 corresponds to cell number divided by the area of one well of a 96-well plate ([…]).
In a dilution series 100 μL/well of test substance dilution prepared in complete RPMI-1640 growth media was added to the cells. The dilution series is selected so that ten concentrations cover a range from 10 μM to 0.33 nM. If necessary the initial concentration of 10 μM is increased to 100 μM or lowered to 1 μM (as in the case of A375 and H1666 cells, which are generally more sensitive to the compounds) and further dilution is carried out accordingly. The final concentration of DMSO in the assay is set at 0.5%.
After treatment, media was removed and cells were lysed in 50 μL of 1× AlphaScreen Ultra Lysis Buffer (Perkin Elmer). The AlphaLISA® SureFire® Ultra™ p-ERK 1/2 (Thr202/Tyr2O4) (PerkinElmer) reactions were performed with 5 μL of cell lysate according to the manufacturer's specifications in 384-well proxyplates (Perkin Elmer) followed by overnight incubation of the reactions at room temperature in a humidified chamber. After completion of the reactions, the signals were recorded on an EnVision plate reader (Perkin Elmer) using built in AlphaLISA® settings.
The effect of each compound dilution on the pERK signal was expressed in % inhibition and calculated as follows. An internal 100% inhibition control ([…] trametinib, cat #HY-10999; MedChem Express; CAS #871700-17-3) was included in each plate and used as a measure of pERK background. First, the value obtained for trametinib was subtracted from each data point. The average of DMSO (vehicle) controls (set as 0% inhibition) was established and used to calculate % inhibition: % inhibition=100*(1-((pERK signalcompound)/(pERK signalDMSO)))
The ability of each compound to inhibit pERK signal was expressed as an IC50 value obtained by plotting the inhibition values for each data point of a dilution series and fitting the obtained curves using a log(agonist) versus response-variable slope (four parameters) function using GraphPadPrism (V7.0) or Dotmatics Screening Ultra platform.
When present, paradoxical pERK induction is inferred from the negative % inhibition values observed in the pERK IC50 curves of a compound.

Chain of ARAF (P10398 whole entry): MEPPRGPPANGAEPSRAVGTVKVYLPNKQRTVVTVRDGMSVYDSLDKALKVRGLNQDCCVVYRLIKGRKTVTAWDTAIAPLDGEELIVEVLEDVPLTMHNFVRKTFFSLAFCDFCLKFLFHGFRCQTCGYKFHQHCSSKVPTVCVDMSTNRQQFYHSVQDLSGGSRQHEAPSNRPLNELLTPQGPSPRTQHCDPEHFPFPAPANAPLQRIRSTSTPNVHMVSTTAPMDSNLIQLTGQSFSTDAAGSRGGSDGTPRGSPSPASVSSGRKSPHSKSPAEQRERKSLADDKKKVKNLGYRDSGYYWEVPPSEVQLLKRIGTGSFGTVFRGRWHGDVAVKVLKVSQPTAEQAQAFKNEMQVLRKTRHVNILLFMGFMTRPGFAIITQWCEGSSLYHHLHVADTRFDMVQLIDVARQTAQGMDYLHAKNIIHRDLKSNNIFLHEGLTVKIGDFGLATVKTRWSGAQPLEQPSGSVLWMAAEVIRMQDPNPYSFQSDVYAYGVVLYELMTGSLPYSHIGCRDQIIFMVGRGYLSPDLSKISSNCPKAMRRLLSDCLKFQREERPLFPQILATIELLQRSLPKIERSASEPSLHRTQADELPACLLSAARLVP

## Cc1ccc2c(Nc3cccc(Cl)c3F)nccc2c1NC(=O)c1csc2c(N)ncnc12 [Belvarafenib, reference compound]
[1]
  IC50: > 10 nM
[2]; Homo sapiens, IPC-298
  IC50: 30 to 300 nM
[2]
  IPC298 pERK % Ymin: −63%

## Nc1cccc2c1ncn2-c1ccc2ncnc(Nc3c(F)ccc(NS(=O)(=O)c4cccc(Cl)c4Cl)c3F)c2n1 [Example 99]
[1]
  IC50: < 1 nM
[2]; IPC298
  IC50: 30 to 300 nM
[2]
  IPC298 pERK % Ymin: −2%

## CC1(O)CCN(c2cccc3c2ncn3-c2ccc3ncnc(Nc4c(F)ccc(NS(=O)(=O)c5cccc(Cl)c5Cl)c4F)c3n2)CC1 [Example 524]
[1]
  IC50: 1 to 10 nM
[2]; IPC298
  IC50: 30 to 300 nM
[2]
  IPC298 pERK % Ymin: 13%
